# Assay results taken from patent publication US20240108591A1, “OR2L13 AGONISTS TO TREAT CVD WITH DY[…] ACTIVATION” (The Cleveland Clinic Foundation, priority 2022, published 2024).
# Key:
# [1] = Circulating platelet number in treated mice; format: in vivo, mouse; conditions: 100 mg/Kg/day i.p. for three days, FVB/tac mice
# Experimental: To ascertain whether exogenous (−) carvone in mice impacted platelet reactivity and thrombosis in vivo, FVB/tac mice were administered (−) carvone at a dose of 100 mg/Kg/day for three days by i.p. injection. Platelets were then isolated from mice and thrombin-stimulated ex vivo. Thrombin-induced platelet degranulation ex vivo was inhibited in platelets from (−) carvone-treated mice (FIG. 7C). […] This effect is consistent with adequate absorption and distribution of (−) carvone to attenuate platelet activation and thrombosis in vivo.
# healthy platelets [2] = test: Platelet calcium transients (Fura-2 fluorescence); format: cell-based, human; conditions: 300 μM, n=5
# Source text: (§1) FIG. 5. A conserved olfactory receptor signal transduction pathway in healthy platelets. A. Proposed platelet OR2L13 signal transduction. Levo-carvone (L-Carvone) binds to OR2L13 on platelets to generate cAMP through adenylyl cyclase activation, and cAMP changes the cytosolic concentration of calcium (Ca 2+) directly and chloride conductance (C1^−) while inhibiting platelet reactivity through known, well-described mechanisms involving protein kinase (PKA). […] C. […] Data are mean±SEM (n=4, MQAE fluorescence). *P=0.0134 (−) carvone vs control by student's t-test. D. Carvone stimulation (300 μM) of healthy platelets promotes local brief calcium transients 20-80% above baseline is sustained compared with thrombin which attenuates over time (n=5 human platelets, Fura-2 fluorescence). MQAE=-[ethoxycarbonylmethyl]-6-methoxy-quinoliniumbromide. Arrowhead=drug addition.
# (§2) ORs and downstream anoctamin proteins are generally expressed in afferent olfactory neurons (23). ORs are GPCRs positively linked to AC to increase cAMP (24), triggering […] as a downstream calcium-sensitive chloride channel (25). If this signal transduction pathway is conserved in platelets, OR2L13 activation should generate cAMP in platelets coincident with changes in platelet Cl^−- and Ca^2+ flux (schematic, FIG. 5A). […]
# human platelets = test: cAMP generation in human platelets; format: cell-based; conditions: 300 μM, 5 minutes, n=7
# Source text: as §1, §2
# healthy human blood = test: Thrombus formation in collagen-I coated microfluidics chamber at high shear; format: cell-based; conditions: 300 μM, 30 minutes, 40 dyn/cm^2, three minutes
# Experimental: (§3) FIG. 7. Biomechanical platelet activation is inhibited by OR2L13 agonists. A. In vitro exposure of healthy platelets to steady laminar flow (S-flow) or disturbed flow (D-flow) for 60 mins after 30 minute pre-treatment with vehicle or (−) Carvone (300 μM). Platelet activation quantified by surface p-selectin expression as mean fluorescence intensity (MFI)±SEM, n=3 in each group by 2-way ANOVA. B. Calcein green-loaded healthy human blood flowing through a collagen-I coated microfluidics chamber at 40 dyn/cm^2 and imaged by confocal microscopy for adherent thrombus (green puncta) at three minutes. […] Differences between groups was assessed by the student's t-test, * P<0.0001 vs. vehicle. […]
# (§4) Healthy human blood loaded with the fluorophore calcein green at room temperature (10 μM, pH 7.4 for 20 minutes), and incubated with odorant ligands for 30 minutes. […] D-flow shear cannot be accurately determined, though the same rotational speed was used with S-flow and D-flow always run alongside no flow (static) conditions for internal consistency. Following exposure to S-flow or D-flow, platelets were imaged by confocal microscopy, surface marker proteins were determined quantitatively by flow cytometry, and platelet proteins were assessed by Western blotting.
# (§5) We next evaluated biomechanical platelet activation by S-flow and D-flow. […]
# MMP2 [3] = test: Platelet lysate MMP2 activity by zymography in AAA model; conditions: isolated platelets from treated wild-type mice, week 4 following AAA
# MMP2 [4] = test: Aortic lysate MMP activity by zymography in AAA model; format: in vivo, mouse; conditions: daily 100 mg/Kg i.p., aortic lysate at week 4 following AAA
# Source text: We previously reported that platelet matrix metalloproteinase (MMP) activity is increased in myocardial infarction (7, 27). Given that patients with AAA show less aortic growth and rupture when taking aspirin and growth and rupture are linked to MMP activity (10), we hypothesized that circulating platelets in patients with AAA may synthesize and secrete MMPs. Platelet MMP9 activity was enhanced and the MMP9 Tissue Inhibitor of MMP9 (TIMP1) was reduced in AAA compared to healthy conditions (FIG. 9A). Platelet MMP9 content was unchanged in healthy compared with AAA platelets. Aortic tissue as well as luminal thrombus from patients with infrarenal AAA compared to non-aneurysmal cadaveric aorta had increased expression and activity of MMP9.
# FVB/tac mice [5] = test: Tail bleeding time (time to hemostasis after tail tip amputation); format: in vivo, mouse; conditions: 100 mg/Kg/day i.p. for three days
# Experimental: (§6) FIG. 7. Biomechanical platelet activation is inhibited by OR2L13 agonists. A. In vitro exposure of healthy platelets to steady laminar flow (S-flow) or disturbed flow (D-flow) for 60 mins after 30 minute pre-treatment with vehicle or (−) Carvone (300 μM). Platelet activation quantified by surface p-selectin expression as mean fluorescence intensity (MFI)±SEM, n=3 in each group by 2-way ANOVA. B. Calcein green-loaded healthy human blood flowing through a collagen-I coated microfluidics chamber at 40 dyn/cm^2 and imaged by confocal microscopy for adherent thrombus (green puncta) at three minutes. Data are represented as mean thrombus area of random fields±SEM, n=6-7 in each group following 30 minutes of vehicle (0.25% DMSO) or (−) carvone treatment (300 μM). Differences between groups was assessed by the student's t-test, * P<0.0001 vs. vehicle. C. WT Fvb/tac mice were given 100 mg/Kg/day (−) carvone IP for 3 days. Platelets were isolated and stimulated in the presence of thrombin. […] D. Time to hemostasis in mice treated with (−) carvone following surgical amputation of tail tip in seconds±SEM, n=6-9 in each group, *P=0.0046 vs. vehicle by Mann Whitney U.
# (§7) To ascertain whether exogenous (−) carvone in mice impacted platelet reactivity and thrombosis in vivo, FVB/tac mice were administered (−) carvone at a dose of 100 mg/Kg/day for three days by i.p. injection. […]
# healthy platelets [6] = test: Platelet chloride efflux (MQAE fluorescence); format: cell-based, human; conditions: 300 μM, n=4
# Source text: as §1, §2
# FVB/tac mice [7] = test: Murine AAA model (topical elastase, BAPN, anti-TGFβ), aortic diameter by ultrasound
# Experimental: To augment aneurysm growth and induce ILT as described (26), anti—TGFβ blocking antibody (250 μg/mouse) was injected i.p. three times weekly starting the day of surgery. Each mouse (20-30 g in weight) is given 1 mL subcutaneous physiologic saline before surgical incision to account for insensible volume losses with gut externalization. Surgical procedures were conducted on a surgical heating pad at 37 ° C. Mice were anesthetized with isoflurane anesthesia (3% by nosecone) using oxygen as the carrier. Buprenorphine (0.05 mg/Kg) is given 30 minutes prior to skin incision. The area of incision is cleaned with 70% ethanol and betadine three times, and then infiltrated gently with local anesthesia (bupivacaine 5 mg/Kg SQ immediately prior to incision). A midline abdominal incision is made through the skin. The rectus sheath was divided at the Linea Alba. The intestines are exteriorized with a Qtip to the left of mouse onto gauze soaked with saline above and below to prevent drying. Whatman paper 6 mm×9 mm slices were placed on top of aorta below the bifurcation of the renal arteries. […] Hyperalgesia was assessed immediately after the procedure, and then twice daily for 48 hrs, and maintenance dose buprenorphine (0.05 mg/Kg) was given 8 hrs post-surgery, and then maintained at this dose for 48 hrs post-surgery. […]
# [8] = tested on: platelets from healthy humans; test: Light transmission aggregometry, ADP-induced platelet aggregation; format: cell-based, human; conditions: 30 minutes preincubation, ADP 0.1 μM
# Experimental: FIG. 6. […] A. Platelets were isolated from healthy humans and preincubated with (−) carvone or (+) carvone (300 μM) for 30 minutes. Platelets were stimulated with ADP (0.1 μM) and light transmission aggregometry assessed platelet activation. Representative tracings for each agonist are shown. B. Carvone (300 μM) or forskolin (10 μM) incubation individually or together for 30 minutes followed by platelet stimulation with ADP (0.1 μM). Light transmission aggregometry assessed platelet activation. Representative aggregometry tracings are shown. V=vehicle, C=(−)carvone, F=forskolin. Differences between groups by one-way ANOVA followed by Bonferroni correction *P<0.0001, **P=0.0003, ***P<0.0001 vs. vehicle (n=3). C. […] D. Platelets isolated from healthy humans and preincubated with (−) carvone (0-500 μM) for 30 minutes then stimulated with ADP (0.1 μM). Light transmission aggregometry assessed platelet activation. Representative tracings for each agonist are shown. E. Summary data for each concentration of (−) carvone as mean±SEM by ANOVA in the presence of ADP stimulation (0.1 μM). The downward red arrow is ADP in the presence of vehicle to which all data points were compared. *P<0.05 vs. vehicle, n=3 in each group by ANOVA, followed by Bonferroni correction. The broken blue line indicates the log IC50 concentration of (−) carvone. […]
# [9] = tested on: platelets from FVB/tac mice; test: Ex vivo thrombin-stimulated platelet activation after in vivo dosing; set-up: species or system mouse; conditions: 100 mg/Kg/day i.p. for three days
# Experimental: as §6, §7
# healthy platelets [10] = test: Flow cone and plate exposure to S-flow or D-flow, surface p-selectin by FACS; format: cell-based, human; conditions: 300 μM, 30 minute pre-treatment, 60 mins flow
# Experimental: as §3, §4, §5
# [11] = tested on: clinical population with AAA; conditions: large clinical population (ref 10); cited from earlier work
# patients with small AAA = conditions: randomized clinical trial (ref 14); cited from earlier work
structure (smiles),measurement,setting,value
"C=C(C)[C@@H]1CC=C(C)C(=O)C1 (single isomer, unassigned) [(−) carvone]",circulating platelet number,[1],without affecting the circulating platelet number
same,local brief calcium transients above baseline,healthy platelets [2],20-80%
"C=C(C)C1CC=C(C)C(=O)C1 (single isomer, unassigned; (-)) [(−) carvone]",cAMP generation in platelets,human platelets,generates cAMP
same,thrombosis in whole blood (thrombus area),healthy human blood,attenuated
same,platelet MMP2 activity compared to control mice,MMP2 [3],decreased
same,MMP2 activity in the aorta,MMP2 [4],decreased MMP2 activity in the aorta
same,tail bleeding times,FVB/tac mice [5],prolonged
same,chloride efflux,healthy platelets [6],promotes chloride efflux
same,AAA growth (aortic diameter by ultrasound),"FVB/tac mice [7]; 100 mg/Kg/day i.p. starting at day 7, fvb/tac mice",attenuated AAA growth
same,ADP-induced platelet aggregation,[8]; 0-500 μM,blunted ADP-induced platelet aggregation dose-dependently
same,"anti-platelet effect, (−) versus (+) enantiomer",[8]; 300 μM,more potent anti-platelet effect
same,thrombin-induced platelet degranulation ex vivo,[9],inhibited
same,S-flow / D-flow induced platelet activation (surface p-selectin),healthy platelets [10],attenuated only D-flow induced platelet activation
"CC(=O)Oc1ccccc1C(=O)O [aspirin, reference compound]",AAA growth (aortic diameter by ultrasound),"FVB/tac mice [7]; 30 mg/L in drinking water starting at day 7, fvb/tac mice",attenuated AAA growth similarly to aspirin
same,AAA growth in patients,[11],limits AAA growth
CCCSc1nc(N[C@@H]2C[C@H]2c2ccc(F)c(F)c2)c2nnn([C@@H]3C[C@H](OCCO)[C@@H](O)[C@H]3O)c2n1 [ticagrelor],AAA growth in patients,patients with small AAA,did not alter AAA growth
